Data reported in patent US20250170130A1, “MODULATORS OF MYC FAMILY PROTO-ONCOGENE PROTEIN” (Nalo Therapeutics, priority 2022, published 2025).
Read-outs that look alike come from different tables or passages of the source.

Experiments:
MycC = molecular target: T1, MycC (Homo sapiens, UniProt P01106); test: Degradation of MycC protein in L363 cells, JESS/Western blot of lysates; format: cell-based; details: L-363, 24 h; for Dmax at 0.5 µM: read-out: % Degradation of MycC (L-363) 24 h, 0.5 μM; for Dmax at 6 µM: read-out: % Degradation of MycC (L-363) 24 h, 6 μM; for Dmax at 3 µM: read-out: % Degradation of MycC (L-363) 24 h, 3 μM; for Dmax at 1 µM: read-out: % Degradation of MycC (L-363) 24 h, 1 μM
T1 construct: endogenous in cells; host or cells: L363
Description: For L363 cells (suspension), 1E6 cells were plated into each well of a 6 well plate. For SK-N-BE(2) cells (adherent), 5E5 cells were plated into each well of a 6 well dish. […] All compounds were diluted to 10 mM in DMSO. Cells were treated with the compound for 24 hrs, then for both cell types, media containing cells were removed from wells into a 15 ml centrifuge tube, and remaining adherent SK-N-BE(2) cells were also scraped from the wells into the appropriate tubes. Tubes were centrifuged, cells were washed with PBS then re-centrifuged to pellet cells. A RIPA buffer cocktail was added to the cells on ice for 5 mins. Cell lysates were clarified by centrifugation and stored at −80 degrees until required. BCA assay was performed on each lysate to determine the protein concentration.
(§1) Once an appropriate lysate concentration and antibody concentration was determined, samples were screened in the JESS technology (Protein Simple, San Jose, CA—https://www.proteinsimple.com/jess.html).
(§2) Target protein antibodies (n-myc and c-myc) were detected in the chemi-luminescence channel and loading controls (tubulin and GAPDH) were detected using a Near Infra Red (NIR) labeled secondary antibody.
For SK-N-EB2 adherent cells, 5E5 cells in 1.9 mls media were plated into 6 well dishes and incubated for 24 hrs. […] Cells were scrapped off the plate, centrifuged, washed with PBS, centrifuged, then a RIPA buffer cocktail added to the cells (100 ul), centrifuged and stored at −80 for later analysis. For L363 suspension cells, 1E6 cells were plated into […] (950 ul media) and incubated for 24 hrs. […] Cells were aspirated into tubes, centrifuged, washed with PBS, centrifuged, then a RIPA buffer cocktail added to the cells (100 ul), centrifuged and stored at −80 for later analysis.
(§3) For Western blot, a BCA (total protein) assay was run on all samples, these were then run in batches of 5 compounds plus control (DMSO) on each Western blot run—n-myc and c-myc were run in separate experiments in the chemiluminescence channel. Both tubulin and GAPDH were run as loading controls in all lanes in the near infra red channel.

MycN = molecular target: T2, MycN (Homo sapiens, UniProt P04198); test: Degradation of MycN protein in SK-N-BE(2) cells, JESS/Western blot of lysates; format: cell-based; details: SKNBE2, 24 h; for Dmax at 3 µM: read-out: % Degradation of MycN (SKNBE2) 24 h, 3 μM; for Dmax at 6 µM: read-out: % Degradation of MycN (SKNBE2) 24 h, 6 μM; for Dmax at 0.5 µM: read-out: % Degradation of MycN (SKNBE2) 24 h, 0.5 μM; for Dmax at 1 µM: read-out: % Degradation of MycN (SKNBE2) 24 h, 1 μM
T2 construct: endogenous in cells; host or cells: SK-N-BE(2)
T2 sequence (P04198 1-464): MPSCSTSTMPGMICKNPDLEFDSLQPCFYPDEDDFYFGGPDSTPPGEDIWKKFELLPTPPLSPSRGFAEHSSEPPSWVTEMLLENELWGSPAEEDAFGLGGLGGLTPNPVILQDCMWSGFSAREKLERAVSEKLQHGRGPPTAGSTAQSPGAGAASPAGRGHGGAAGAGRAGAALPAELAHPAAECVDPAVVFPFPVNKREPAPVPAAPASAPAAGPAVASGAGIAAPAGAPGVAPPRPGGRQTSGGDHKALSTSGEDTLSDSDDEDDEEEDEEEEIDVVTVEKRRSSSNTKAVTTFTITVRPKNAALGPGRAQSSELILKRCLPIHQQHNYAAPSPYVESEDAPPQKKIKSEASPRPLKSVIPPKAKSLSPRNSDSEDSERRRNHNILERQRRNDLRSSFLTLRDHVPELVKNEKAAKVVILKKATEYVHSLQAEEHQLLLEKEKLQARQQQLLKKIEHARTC
Description: For L363 cells (suspension), 1E6 cells were plated into each well of a 6 well plate. For SK-N-BE(2) cells (adherent), 5E5 cells were plated into each well of a 6 well dish. Cells were cultured for 24 hrs then treated with exemplary compounds at […] final assay concentrations plus DMSO control. All compounds were diluted to 10 mM in DMSO. Cells were treated with the compound for 24 hrs, then for both cell types, media containing cells were removed from wells into a 15 ml centrifuge tube, and remaining adherent SK-N-BE(2) cells were also scraped from the wells into the appropriate tubes. Tubes were centrifuged, cells were washed with PBS then re-centrifuged to pellet cells. A RIPA buffer cocktail was added to the cells on ice for 5 mins. Cell lysates were clarified by centrifugation and stored at −80 degrees until required. BCA assay was performed on each lysate to determine the protein concentration.
as §1, §2
For SK-N-EB2 adherent cells, 5E5 cells in 1.9 mls media were plated into 6 well dishes and incubated for 24 hrs. Exemplary compounds were added (100 ul, 1 in 20 dilution in media) to each well (final assay concentration 6, 3, 1 and […]) together with DMSO control wells and incubated for 24 hrs. Cells were scrapped off the plate, centrifuged, washed with PBS, centrifuged, then a RIPA buffer cocktail added to the cells (100 ul), centrifuged and stored at −80 for later analysis. For L363 suspension cells, 1E6 cells were plated into 24 well dishes (950 ul media) and incubated for 24 hrs. Exemplary compounds were added (50 ul, 1 in 20 dilution in media) to each well (final assay concentration 6, 3, 1 and […]) together with DMSO control wells and incubated for 24 hrs. Cells were aspirated into tubes, centrifuged, washed with PBS, centrifuged, then a RIPA buffer cocktail added to the cells (100 ul), centrifuged and stored at −80 for later analysis.
as §3

T1 sequence (P01106 whole entry): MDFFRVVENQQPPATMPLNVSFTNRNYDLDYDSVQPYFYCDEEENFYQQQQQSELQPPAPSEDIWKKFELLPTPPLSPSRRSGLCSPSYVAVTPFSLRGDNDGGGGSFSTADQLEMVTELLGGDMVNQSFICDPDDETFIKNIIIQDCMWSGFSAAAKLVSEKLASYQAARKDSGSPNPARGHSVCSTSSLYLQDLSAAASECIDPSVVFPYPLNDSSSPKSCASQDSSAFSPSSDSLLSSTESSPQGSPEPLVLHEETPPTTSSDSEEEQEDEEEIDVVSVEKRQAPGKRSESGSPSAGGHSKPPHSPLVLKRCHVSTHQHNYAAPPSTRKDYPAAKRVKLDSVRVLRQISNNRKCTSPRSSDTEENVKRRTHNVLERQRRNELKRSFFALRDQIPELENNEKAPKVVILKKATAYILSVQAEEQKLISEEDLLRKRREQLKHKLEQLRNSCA

Dmax at 0.5 µM (MycC; L-363 cells, 24 h) [%]	Dmax at 3 µM (MycN; SKNBE2 cells, 24 h, 3 μM) [%]	Dmax at 6 µM (MycN; SKNBE2 cells, 24 h, 6 μM) [%]	Dmax at 6 µM (MycC; L-363 cells, 24 h, 6 μM) [%]	Dmax at 0.5 µM (MycN; SKNBE2 cells, 24 h, 0.5 μM) [%]	Dmax at 1 µM (MycN; SKNBE2 cells, 24 h, 1 μM) [%]	Dmax at 3 µM (MycC; L-363 cells, 24 h, 3 μM) [%]	Dmax at 1 µM (MycC; L-363 cells, 24 h, 1 μM) [%]	SMILES	Dmax at 1 µM (MycC) [%]	Dmax at 3 µM (MycC) [%]	Dmax at 6 µM (MycC) [%]	Dmax at 0.5 µM (MycN) [%]	Dmax at 1 µM (MycN) [%]	Dmax at 3 µM (MycN) [%]	Dmax at 6 µM (MycN) [%]
	20 to 49	50 to 79	< 20	< 20	< 20			CN(C)CCCNc1nccc(Nc2cc(C3CC3)[nH]n2)n1 [Compound 20, N4-(5-Cyclopropyl-1H-pyrazol-3-yl)-N2-[3-(dimethylamino)propyl]pyrimidine-2,4-diamine]							
	20 to 49	20 to 49	20 to 49	20 to 49	< 20	< 20		CNC[C@@H]1CCN(c2nccc(Nc3cc(C4CC4)[nH]n3)n2)C1 [Compound 21, N-(5-Cyclopropyl-1H-pyrazol-3-yl)-2-[(3S)-3-(methylaminomethyl)pyrrolidin-1-yl]pyrimidin-4-amine]							
	80 to 100	80 to 100	80 to 100	20 to 49	50 to 79	80 to 100		NC[C@H]1CCN(c2nccc(Nc3cc(C4CCCC4)[nH]n3)n2)C1 [Compound 23, 2-[(3R)-3-(aminomethyl)pyrrolidin-1-yl]-N-(5-cyclopentyl-1H-pyrazol-3-yl)pyrimidin-4-amine]							
< 20	80 to 100	80 to 100	80 to 100	20 to 49	50 to 79	80 to 100		NC[C@@H]1CCCN(c2nccc(Nc3cc(C4CC4)[nH]n3)n2)C1 [Compound 24, 2-[(3S)-3-(aminomethyl)-1-piperidyl]-N-(5-cyclopropyl-1H-pyrazol-3-yl)pyrimidin-4-amine]							
< 20	50 to 79	80 to 100	20 to 49	20 to 49	20 to 49	< 20	20 to 49	CN1CC(C2CCN(c3nccc(Nc4cc(C5CCCC5)[nH]n4)n3)C2)C1 (stereo not drawn) [Compound 27, N-(5-cyclopentyl-1H-pyrazol-3-yl)-2-[3-(1-methylazetidin-3-yl)pyrrolidin-1-yl]pyrimidin-4-amine]							
20 to 49	80 to 100	80 to 100	80 to 100	80 to 100	80 to 100	80 to 100	50 to 79	NC[C@H]1CCCN(c2nccc(Nc3cc(C4CC4)[nH]n3)n2)C1 [Compound 29, 2-[(3R)-3-(Aminomethyl)-1-piperidyl]-N-(5-cyclopropyl-1H-pyrazol-3-yl)pyrimidin-4-amine]							
	80 to 100	80 to 100	80 to 100	80 to 100	80 to 100	80 to 100		CNCC12CC(C1)N(c1nccc(Nc3cc(C4CCCC4)[nH]n3)n1)C2 [Compound 31, N-(5-cyclopentyl-1H-pyrazol-3-yl)-2-[4-(methylaminomethyl)-2-azabicyclo[2.1.1]hexan-2-yl]pyrimidin-4-amine]							

More lines, now with the values behind:

SMILES	Dmax at 0.5 µM (MycC; L-363 cells, 24 h) [%]	Dmax at 3 µM (MycN; SKNBE2 cells, 24 h, 3 μM) [%]	Dmax at 6 µM (MycN; SKNBE2 cells, 24 h, 6 μM) [%]	Dmax at 6 µM (MycC; L-363 cells, 24 h, 6 μM) [%]	Dmax at 0.5 µM (MycN; SKNBE2 cells, 24 h, 0.5 μM) [%]	Dmax at 1 µM (MycN; SKNBE2 cells, 24 h, 1 μM) [%]	Dmax at 3 µM (MycC; L-363 cells, 24 h, 3 μM) [%]	Dmax at 1 µM (MycC; L-363 cells, 24 h, 1 μM) [%]	Dmax at 1 µM (MycC) [%]	Dmax at 3 µM (MycC) [%]	Dmax at 6 µM (MycC) [%]	Dmax at 0.5 µM (MycN) [%]	Dmax at 1 µM (MycN) [%]	Dmax at 3 µM (MycN) [%]	Dmax at 6 µM (MycN) [%]
CN[C@@H]1CCN(c2nccc(Nc3cc(C4CC4)[nH]n3)n2)C1 [Compound 19, N-(5-Cyclopropyl-1H-pyrazol-3-yl)-2-[(3R)-3-(methylamino)pyrrolidin-1-yl]pyrimidin-4-amine]	< 20	20 to 49	20 to 49												
CN(C)CC12CC(C1)N(c1nccc(Nc3cc(C4CC4)[nH]n3)n1)C2 [Compound 22, N-(5-Cyclopropyl-1H-pyrazol-3-yl)-2-[4-[(dimethylamino)methyl]-2-azabicyclo[2.1.1]hexan-2-yl]pyrimidin-4-amine]		20 to 49	50 to 79	80 to 100	< 20	< 20	< 20								
c1cc(Nc2cc(C3CC3)[nH]n2)nc(N2CC3(CCNC3)C2)n1 [Compound 25, N-(5-cyclopropyl-1H-pyrazol-3-yl)-2-(2,7-diazaspiro[3.4]octan-2-yl)pyrimidin-4-amine]	< 20	20 to 49	20 to 49		20 to 49	20 to 49		< 20							
CN1CCC2(C1)CN(c1nccc(Nc3cc(C4CC4)[nH]n3)n1)C2 [Compound 26, N-(5-cyclopropyl-1H-pyrazol-3-yl)-2-(7-methyl-2,7-diazaspiro[3.4]octan-2-yl)pyrimidin-4-amine]	20 to 49	20 to 49	50 to 79		20 to 49	20 to 49	< 20	20 to 49							
c1cc(Nc2cc(C3CCCC3)[nH]n2)nc(N2CCC(C3CNC3)C2)n1 (stereo not drawn) [Compound 28, 2-[3-(azetidin-3-yl)pyrrolidin-1-yl]-N-(5-cyclopentyl-1H-pyrazol-3-yl)pyrimidin-4-amine]	< 20	80 to 100	80 to 100	50 to 79		80 to 100		< 20							
NCC12CC(C1)N(c1nccc(Nc3cc(C4CC4)[nH]n3)n1)C2 [Compound 30, 2-[4-(aminomethyl)-2-azabicyclo[2.1.1]hexan-2-yl]-N-(5-cyclopropyl-1H-pyrazol-3-yl)pyrimidin-4-amine]									20 to 49	80 to 100	80 to 100	< 20	50 to 79	80 to 100	80 to 100
